How the values were obtained:
LOXL2 = molecular target: T1, LOXL2 (Homo sapiens, UniProt Q9Y4K0); test: Time-dependent inhibition of LOXL2, Amplex Red oxidation assay; type: biochemical; details: for IC50: 37 °C
T1 sequence (Q9Y4K0 26-774): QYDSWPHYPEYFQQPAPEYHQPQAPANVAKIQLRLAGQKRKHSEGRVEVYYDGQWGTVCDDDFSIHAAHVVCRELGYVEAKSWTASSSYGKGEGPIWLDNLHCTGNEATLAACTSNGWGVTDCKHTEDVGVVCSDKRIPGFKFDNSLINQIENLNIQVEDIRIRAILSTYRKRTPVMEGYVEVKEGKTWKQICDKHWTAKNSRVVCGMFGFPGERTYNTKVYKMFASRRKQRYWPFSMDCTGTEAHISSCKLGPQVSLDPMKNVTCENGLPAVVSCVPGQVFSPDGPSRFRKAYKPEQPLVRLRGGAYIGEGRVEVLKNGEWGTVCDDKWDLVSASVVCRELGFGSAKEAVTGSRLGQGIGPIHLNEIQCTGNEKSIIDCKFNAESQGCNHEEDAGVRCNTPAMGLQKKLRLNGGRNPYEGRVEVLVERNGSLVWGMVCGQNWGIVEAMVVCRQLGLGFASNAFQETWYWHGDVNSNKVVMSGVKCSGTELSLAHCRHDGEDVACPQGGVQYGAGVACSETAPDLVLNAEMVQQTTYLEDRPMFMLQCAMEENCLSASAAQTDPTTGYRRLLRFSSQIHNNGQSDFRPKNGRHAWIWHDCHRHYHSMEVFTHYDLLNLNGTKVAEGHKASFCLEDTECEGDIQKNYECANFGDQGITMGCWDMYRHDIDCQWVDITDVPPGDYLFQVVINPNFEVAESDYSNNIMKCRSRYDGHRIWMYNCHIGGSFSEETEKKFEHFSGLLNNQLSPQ
Method: The time dependent inhibitory effects of the Compound 1 of the present invention were tested against the given LOXL1 preparation and LOXL2 preparation using a method based on the detection of hydrogen peroxide with an Amplex Red oxidation assay [Zhou et al. 1997]. The assay was developed for use in either 384 or 96 well format. Briefly, in a standard black, clear bottom 384 well plate assay 25 µL of a dilution of any of the isoenzymes and orthologues in 1.2 M urea, 50 mM sodium borate buffer (pH 8.2) were added into each well in the presence of […] and 0.5 mM pargyline (to inhibit SSAO and MAO-B and MAO-A, respectively; not necessary if the enzyme is from a recombinant or purified form). Test compound (Compound 1) was dissolved in DMSO and tested in a Concentration Response Curve (CRC) with 11 data points, typically in the micromolar or nanomolar range after incubation with the enzyme for different time points at 37 °C. 25 μL of a reaction mixture containing twice the KM concentration of putrescine (Sigma Aldrich, e.g. 20 mM for LOXL1 or 10 mM for LOXL2), 120 µM Amplex Red (Thermo Fisher Scientific) and 1.5 U/mL horseradish peroxidase (Sigma Aldrich) prepared in 1.2 M urea, 50 mM sodium borate buffer (pH 8.2) were then added to the corresponding wells. The fluorescence (RFU) was read every 2.5 min for 30 min at 37 °C, excitation 544 nm and emission 590 nm (Optima; BMG labtech). The slope/min of the kinetics for each well was calculated using MARS data analysis software (BMG labtech) and this value was used to deduce the IC50 value (Dotmatics).

[1] = Solubility and stability of test item in DMSO vehicle; type: physicochemical; details: for Stability in vehicle DMSO: at 20 μg/mL and 50000 μg/mL
Method: The test item was soluble in DMSO at 50 mg/mL and was used as the vehicle of choice in the mutation assay.

[2] = test system: SSAO/VAP-1, MAO-B, MAO-A and DAO; test: Selectivity with respect to other amine oxidases; type: biochemical, human
Method: Human recombinant SSAO/VAP-1 amine oxidase activity was determined using the coupled colorimetric method as described for monoamine oxidase, copper-containing amine oxidases and related enzymes [Holt A. and Palcic M., 2006]. Briefly, a cloned cDNA template corresponding to residues 34-763 of human SSAO/VAP-1, and incorporating a mouse Ig kappa (κ) signal sequence, N-terminal flag epitope tag and tobacco etch virus (TEV) cleavage site, was assembled in a mammalian expression vector (pLO-CMV) by Geneart AG. This vector containing human SSAO/VAP-1 residues was transfected into CHO-K1 glycosylation mutant cell line, Lee 8. A clone stably expressing human SSAO/VAP-1 was isolated and cultured in large scale. Active human SSAO/VAP-1 was purified and recovered using immunoaffinity chromatography. This was used as the source for SSAO/VAP-1 activity. A high-throughput fluorescent assay was developed using either 96 or 384 well format. Briefly, in a standard 384 well plate assay 25 μL of purified human SSAO/VAP-1 (0.25 μg/mL) in 0.1 M sodium phophate buffer (pH 7.4) was added into each well. […] The fluorescence unit (RFU) was read every 2.5 min for 30 min at 37 °C excitation 544 nm and emission 590 (Optima; BMG labtech). The slope/min of the kinetics for each well was calculated using MARS data analysis software (BMG labtech) and this value was used to deduce the IC50 value (Dotmatics). […]

IC50 (LOXL2; 0′ incubation): 14.7 µM
IC50 (LOXL2; 15′ incubation): 5.58 µM
IC50 (LOXL2; 30′ incubation): 1.71 µM
IC50 (LOXL2; 1 h incubation): 0.89 µM
IC50 (LOXL2; 2 h incubation): 0.41 µM
IC50 (LOXL2; 4 h incubation): 0.31 µM
solubility ([1]; dmso, organic solvent or mixture): ≥ 50 mg/mL
Stability in vehicle DMSO ([1]; refrigerated temperature): ≥ 4 days
Stability in vehicle DMSO ([1]; room temperature): ≥ 0.25 days
Compound: NC/C(=C\F)CS(=O)(=O)c1ccccc1 [Compound 1, (E)-3-fluoro-2-((phenylsulfonyl)methyl)prop-2-en-1-amine]
Time dependent LOXL2 inhibition (LOXL2; apparent potency increasing with time): time dependent LOXL1 and LOXL2 inhibition
Selectivity for LOX family with respect to SSAO/VAP-1, MAO-B, MAO-A and DAO [2]: selectively inhibit members of the LOX family of enzymes

— patent publication US20260364030A1, “NOVEL SELECTIVE INHIBITORS OF LYSYL OXIDASES” (Syntara Limited, priority 2022, published 2026)
